These results are taken from US6844443B2, “Benzimidazole derivatives, their production and use” (Takeda Pharmaceutical Company, Ltd., priority 1990, dated 2005).

As a reminder, the melting point is the temperature, or range, at which the solid turns liquid.

Assay in the first data set: not given
Conditions: not given
Regarding `CCOc1nc2cccc(C(=O)OCOC(C)=O)c2n1Cc1ccc(-c2ccccc2-c2nnn[nH]2)cc1` [Working Example 50, Acetoxymethyl 2-ethoxy-1-[[2′-(1 H-tetrazol-5-yl)biphenyl-4-yl]methyl]benzimidazole-7-carboxylate], the melting point is 152 to 154 °C (dec.).
Same read-out and setting: the same measure for `CCOc1nc2cccc(C(=O)OCOC(=O)CC)c2n1Cc1ccc(-c2ccccc2-c2nnn[nH]2)cc1` [Working Example 51, Propionyloxymethyl 2-ethoxy-1-[[2′-(1 H-tetrazol-5-yl)-biphenyl-4-yl]methyl]benzimidazole-7-carboxylate]: 145 to 150 °C (dec.).
In the case of `CCCC(=O)OCOC(=O)c1cccc2nc(OCC)n(Cc3ccc(-c4ccccc4-c4nnn[nH]4)cc3)c12` [Working Example 52, Butyryloxymethyl 2-ethoxy-1-[[2′-(1 H-tetrazol-5-yl)biphenyl-4-yl]methyl]benzimidazole-7-carboxylate], the melting point lay in the range of 96 to 100 °C.
Still for that read-out and setting: the value for `CCOc1nc2cccc(C(=O)OCOC(=O)C(C)C)c2n1Cc1ccc(-c2ccccc2-c2nnn[nH]2)cc1` [Working Example 53, Isobutyryloxymethyl 2-ethoxy-1-[[2′-(1 H-tetrazol-5-yl)biphenyl-4-yl]methyl]benzimidazole-7-carboxylate] was 143 to 145 °C; that for `CCOC(=O)OC(C)OC(=O)c1cccc2nc(OCC)n(Cc3ccc(-c4ccccc4-c4nnn[nH]4)cc3)c12` (centres unmarked) [Working Example 54, 1-(Ethoxycarbonyloxy)ethyl 2-ethoxy-1-[[2′-(1 H-tetrazol-5-yl)-biphenyl-4-yl]methyl]benzimidazole-7-carboxylate] was 85 to 87 °C.
The same measure, in the same setting: the same measure for `CCOc1nc2cccc(C(=O)OC(C)OC(C)=O)c2n1Cc1ccc(-c2ccccc2-c2nnn[nH]2)cc1` (centres unmarked) [Working Example 55, 1-Acetoxyethyl 2-ethoxy-1-[[2′-(1 H-tetrazol-5-yl)biphenyl-4-yl]methyl]benzimidazole-7-carboxylate]: 105 to 107 °C; for `CCOc1nc2cccc(C(=O)OC(C)OC(=O)OC(C)C)c2n1Cc1ccc(-c2ccccc2)c(-c2nnn[nH]2)c1` (centres unmarked) [Working Example 56, 1-(Isopropoxycarbonyloxy)ethyl 2-ethoxy-1-[[2-(1 H-tetrazol-5-yl)biphenyl-4-yl]methyl]benzimidazole-7-carboxylate]: 74 to 76 °C.
For `CCOc1nc2cccc(C(=O)OCOC(=O)C3CCCCC3)c2n1Cc1ccc(-c2ccccc2-c2nnn[nH]2)cc1` [Working Example 58, Cyclohexylcarbonyloxymethyl 2-ethoxy-1-[[2′-(1 H-tetrazol-5-yl)biphenyl-4-yl]methyl]benzimidazole-7-carboxylate], the melting point is 140 to 142 °C.
On the same count and under the same terms, the same measure for `CCOc1nc2cccc(C(=O)OCOC(=O)/C=C/c3ccccc3)c2n1Cc1ccc(-c2ccccc2-c2nnn[nH]2)cc1` [Working Example 60, (E)-cinnamoyloxymethyl 2-ethoxy-1-[[2′-(1 H-tetrazol-5-yl)biphenyl-4-yl]methyl]benzimidazole-7-carboxylate]: 146 to 147 °C; for `CCOc1nc2cccc(C(=O)OCOC(=O)C3CCCC3)c2n1Cc1ccc(-c2ccccc2-c2nnn[nH]2)cc1` [Working Example 61, Cyclopentylcarbonyloxymethyl 2-ethoxy-1-[[2′-(1 H-tetrazol-5-yl)biphenyl-4-yl]methyl]benzimidazole-7-carboxylate]: 136 to 138 °C.
Same read-out and setting: the value for `CCNc1nc2cccc(C(=O)OCOC(=O)C(C)(C)C)c2n1Cc1ccc(-c2ccccc2-c2nnn[nH]2)cc1` [Working Example 62, Pivaloyloxymethyl 2-ethylamino-1-[[2′-(1 H-tetrazol-5-yl)biphenyl-4-yl]methyl]benzimidazole-7-carboxylate] was 130 to 135 °C; that for `CCNc1nc2cccc(C(=O)OC(C)OC(=O)OC3CCCCC3)c2n1Cc1ccc(-c2ccccc2-c2nnn[nH]2)cc1` (centres unmarked) [Working Example 63, 1-(Cyclohexyloxycarbonyloxy)ethyl 2-ethylamino-1-[[2′-(1 H-tetrazol-5-yl)biphenyl-4-yl]methyl]benzimidazole-7-carboxylate] was 149 to 152 °C.

The nature of the next data set: Heat stability of solid forms (Experimental Example 1). In kind it is physicochemical. As to conditions: solid form of 1-(cyclohexyloxycarbonyloxy)ethyl ester. The source says: 1-(Cyclohexyloxycarbonyloxy)ethyl 2-ethoxy-1-[[2′-(1 H-tetrazol-5-yl)biphenyl-4-yl]methyl]benzimidazole-7-carboxylate is usually purified by column chromatography on silica gel and the eluted fraction is concentrated to dryness to give amorphous powders. […] For solving this problem, the present inventors made extensive experiments on crystallization of the subject compound and discovered C-type crystalline form. […] The C-type crystal of the title compound has approximately the following lattice spacings: […]
As for `CCOc1nc2cccc(C(=O)OC(C)OC(=O)OC3CCCCC3)c2n1Cc1ccc(-c2ccccc2-c2nnn[nH]2)cc1` (centres unmarked) [C-type crystal], the “heat stability of solid form” value is “stable by heat”.
Still for that read-out and setting: the value for `CCOc1nc2cccc(C(=O)OC(C)OC(=O)OC3CCCCC3)c2n1Cc1ccc(-c2ccccc2-c2nnn[nH]2)cc1` (centres unmarked) [amorphous powders, 1-(Cyclohexyloxycarbonyloxy)ethyl 2-ethoxy-1-[[2′-(1 H-tetrazol-5-yl)biphenyl-4-yl]methyl]benzimidazole-7-carboxylate] was “unstable by heat”.
